Like-named read-outs stand apart in the source and are kept apart here. Where no end group is shown, it is not given here.
Tested on: human melanoma cell line (A2058)
Type: cell-based
Settings: 48 h
Protocol: CAKI2 cells were cultured and adjusted to cell count of about 5×10^3 cells per single well of 96-well plate. The amount of medium at this time was made to be 100 μL per well. Next, the 96-well plate was arranged in a CO2 incubator and incubated for about 1 day (21 hours to 24 hours) under conditions of 37° C. and 5% CO2. […] Cell viability (%) was determined in the manner described below. […] Following completion of incubation, cell viability (%) was evaluated using a colorimetric method consisting of recovering the cell culture liquid containing the above-mentioned reagent together with measuring absorbance at wavelength of 450 nm based on reduction of tetrazolium salt (value corrected for absorbance at a wavelength of 650 nm: A450 to A650). More specifically, the cell viability (%) of each test cell line was calculated from the measured absorbance as a relative value based on cell viability of 100% for the measured value (measured absorbance) of the comparison test group that underwent incubation for 48 hours as described above in only medium not containing peptide. Antitumor activity was evaluated for Sample 2 in above-mentioned Test Example 1 targeted at multiple types of human-derived cultured tumor cells. […]

## FIGNLALSDLLAGVAYTANLLLKKRTLRKNDRKKR-NH2 [Sample 2]
12.5 μM
  Cell Viability (%): 6.5%
25 μM
  Cell Viability (%): 0.2%

— patent publication US11339203B2, “Antitumor peptide and use thereof” (TOAGOSEI CO., LTD., priority 2018, dated 2022)
